Earlier results in Sander's compilation of Henry's law constants (doi:10.1016/j.chemosphere.2007.04.088).

Assay: Henry solubility constant Hcp at 298.15 K (mol/(m3 Pa))
Conditions: reference: Warneck (2007); cited value

Going from `ClCC(Cl)(Cl)Cl` [1,1,1,2-tetrachloroethane] to `ClC(Cl)(Cl)Cl` [tetrachloromethane], the “Henry solubility constant Hcp” value falls from 0.0042 to 0.00036.

Compared with `CC(Cl)(Cl)Cl` [1,1,1-trichloroethane], `ClCC(Cl)Cl` [1,1,2-trichloroethane] is higher in “Henry solubility constant Hcp” value: 0.0006 for the first, 0.011 for the second.

Compared with `ClC(Cl)C(Cl)Cl` [1,1,2,2-tetrachloroethane], `ClC(Cl)=C(Cl)Cl` [tetrachloroethene] is lower in “Henry solubility constant Hcp” value: 0.024 for the first, 0.00062 for the second.

Compared with `C=C(Cl)Cl` [1,1-dichloroethene], `ClC=C(Cl)Cl` [trichloroethene] is higher in “Henry solubility constant Hcp” value: 0.00037 for the first, 0.0011 for the second.

Compared with `CCCl` [chloroethane], `ClCCl` [dichloromethane] is higher in “Henry solubility constant Hcp” value: 0.00083 for the first, 0.0039 for the second.

In the case of `C=CCl` [chloroethene], the “Henry solubility constant Hcp” value is given as 0.00038.
